From patent US8535902B2, “Peptidase substrates” (bioMërieux, S.A., priority 2009, dated 2013)

Columns and labels:
Assay in all cases: Peptidase detection on Columbia medium with substrate, spot inoculation
Format in all cases: cell-based
[1] = system: Bacillus subtilis NCTC 9 372; conditions: 40 mg substrate in 400 ml Columbia medium; 24 hours at 37° C.; visual reading
Description: (§1) A weight of 40 mg of substrate was dissolved in 4 ml of dimethyl sulfoxide and added to 400 ml of previously autoclaved Columbia medium. The medium was distributed into Petri dishes 90 mm in diameter, in a proportion of 20 ml per dish. Seventeen strains of microorganisms stemming from collections and belonging to various species of bacteria and yeasts are inoculated in spots of approximately 10 000 colony-forming units. The media are incubated for 24 hours at 37° C., and then the colonies formed are examined visually.

[2] = system: Candida albicans ATCC 90 028; conditions: 40 mg substrate in 400 ml Columbia medium; 24 hours at 37° C.; visual reading
Description: as §1

[3] = system: Candida glabrata NCPF 3 943; conditions: 40 mg substrate in 400 ml Columbia medium; 24 hours at 37° C.; visual reading
Description: as §1

[4] = system: Enterobacter cloacae NCTC 11 936; conditions: 40 mg substrate in 400 ml Columbia medium, 24 hours at 37° C., visual reading
Description: as §1

[5] = system: Enterococcus faecalis NCTC 775; conditions: 40 mg substrate in 400 ml Columbia medium, 24 hours at 37° C., visual reading
Description: as §1

[6] = system: Enterococcus faecium NCTC 7 171; conditions: 40 mg substrate in 400 ml Columbia medium; 24 hours at 37° C.; visual reading
Description: as §1

[7] = system: Escherichia coli NCTC 10 418; conditions: 40 mg substrate in 400 ml Columbia medium, 24 hours at 37° C., visual reading
Description: as §1

[8] = system: Listeria monocytogenes NCTC 11 994; conditions: 40 mg substrate in 400 ml Columbia medium; 24 hours at 37° C.; visual reading
Description: as §1

[9] = system: Providencia rettgeri NCTC 7 475; conditions: 40 mg substrate in 400 ml Columbia medium; 24 hours at 37° C.; visual reading
Description: as §1

[10] = system: Pseudomonas aeruginosa NCTC 10 662; conditions: 40 mg substrate in 400 ml Columbia medium; 24 hours at 37° C.; visual reading
Description: as §1

[11] = system: Salmonella typhimurium NCTC 74; conditions: 40 mg substrate in 400 ml Columbia medium; 24 hours at 37° C.; visual reading
Description: as §1

[12] = system: Serratia marcescens NCTC 10 211; conditions: 40 mg substrate in 400 ml Columbia medium, 24 hours at 37° C., visual reading
Description: as §1

[13] = system: Staphylococcus aureus NCTC 11 939; conditions: 40 mg substrate in 400 ml Columbia medium; 24 hours at 37° C.; visual reading
Description: as §1

[14] = system: Staphylococcus aureus NCTC 6 571; conditions: 40 mg substrate in 400 ml Columbia medium; 24 hours at 37° C.; visual reading
Description: as §1

[15] = system: Staphylococcus epidermidis NCTC 11 047; conditions: 40 mg substrate in 400 ml Columbia medium; 24 hours at 37° C.; visual reading
Description: as §1

[16] = system: Streptococcus pyogenes NCTC 8 306; conditions: 40 mg substrate in 400 ml Columbia medium; 24 hours at 37° C.; visual reading
Description: as §1

[17] = system: Yersinia enterocolitica NCTC 11 176; conditions: 40 mg substrate in 400 ml Columbia medium; 24 hours at 37° C.; visual reading
Description: as §1

**Q.** “Glycyl-2-(4′-aminostyryl)-N-methyl-benzothiazolinium iodide [Gly-ASBM^+]” was tested. Which Growth [1] did it give?
**A.** Its Growth is 2.

**Q.** What about the Growth [2] of the same substance?
**A.** Its Growth is 1.

**Q.** What about the Growth [3] of the same substance?
**A.** Its Growth is 0.5.

**Q.** And the Growth [4]?
**A.** The Growth was 2.

**Q.** What about the Color ([4]; colony color) of the same substance?
**A.** Its Color is “Pale”.

**Q.** What about the Growth [5] of the same substance?
**A.** Its Growth is 1.

**Q.** What about the Color ([5]; colony color) of the same substance?
**A.** Its Color is “Pale”.

**Q.** And the Growth [6]?
**A.** Its Growth is 1.

**Q.** What about the Growth [7] of the same substance?
**A.** The Growth was 2.

**Q.** What about the Color ([7]; colony color) of the same substance?
**A.** Its Color is “Pale”.

**Q.** What about the Growth [8] of the same substance?
**A.** The Growth was 1.

**Q.** What about the Growth [9] of the same substance?
**A.** The Growth was 2.

**Q.** And the Growth [10]?
**A.** Its Growth is 2.

**Q.** What about the Growth [11] of the same substance?
**A.** Its Growth is 2.

**Q.** And the Growth [12]?
**A.** Its Growth is 2.

**Q.** And the Color ([12]; colony color)?
**A.** The Color was “Orange”.

**Q.** And the Growth [13]?
**A.** The Growth was 1.

**Q.** What about the Growth [14] of the same substance?
**A.** The Growth was 2.

**Q.** And the Growth [15]?
**A.** Its Growth is 1.

**Q.** What about the Growth [16] of the same substance?
**A.** Its Growth is 1.

**Q.** What about the Growth [17] of the same substance?
**A.** Its Growth is 2.
